Measured values from the CheMixHub viscosity set.
Several values for one entry are separate records, joined by “and”; a condition that tells them apart may be missing. Equal values may be shown once.

Columns and labels:
[1] = xn = mol fraction of the nth substance listed

CCCCCCn1cc[n+](C)c1.[Cl-]
101 kPa
Details	viscosity
293.15 K	11420 mPa·s
303.15 K	4206 mPa·s
313.15 K	1718 mPa·s
323.15 K	1879 mPa·s and 783.4 mPa·s

CCOC(=O)CC(C)=O
100 kPa
Details	viscosity [mPa·s]
293.15 K	1.656
298.15 K	1.51

CCOP(=O)([O-])OCC.CC[N+]1(C)CCOCC1
100 kPa
Details	viscosity [mPa·s]
293.15 K	12080
298.15 K	6680
303.15 K	3786
308.15 K	2325
313.15 K	1466
318.15 K	941.7
323.15 K	634

CC[NH3+].O=[N+]([O-])[O-]
viscosity
Details	293.15 K	298 K	298.15 K	303.15 K	308.15 K	313.15 K	318.15 K	323.15 K
100 kPa	40.61 mPa·s	–	34.49 mPa·s	29.65 mPa·s	25.76 mPa·s	22.67 mPa·s	20.12 mPa·s	–
101 kPa	43.5 mPa·s and 44.9 mPa·s	37.51 mPa·s	37.5 mPa·s and 36.5 mPa·s	31 mPa·s	26.5 mPa·s	22.8 mPa·s	20 mPa·s	17.6 mPa·s

S=C=S
Details	viscosity
293.15 K, 101 kPa	0.36 mPa·s and 0.365 mPa·s
298.15 K, 101.33 kPa	0.4077 mPa·s

O=CN1CCOCC1 + Clc1ccccc1
viscosity [mPa·s], [1], 101 kPa
Details	x1 = 0.1017	x1 = 0.203	x1 = 0.3039	x1 = 0.4045	x1 = 0.5046	x1 = 0.6044	x1 = 0.7039	x1 = 0.8029	x1 = 0.9017
303.15 K	0.844	1.034	1.274	1.58	1.966	2.471	3.125	3.981	5.096
308.15 K	0.801	0.973	1.186	1.455	1.793	2.233	2.8	3.529	4.465
313.15 K	0.753	0.911	1.105	1.351	1.656	2.05	2.56	3.21	4.04

FC(F)C(F)(F)F + FCF
viscosity [mPa·s], [1], 101 kPa
Details	x1 = 0.247	x1 = 0.49	x1 = 0.744
298.15 K	0.1177	0.12	0.1269
313.15 K	–	–	0.1021

C=CCN=C=S + NCCN
[1], 313.15 K, 100 kPa
Details	viscosity [mPa·s]
x1 = 0.15	2.956
x1 = 0.2794	6.678
x1 = 0.4515	71.46
x1 = 0.4948	155.4
x1 = 0.5496	648.5
x1 = 0.5994	2470
x1 = 0.667	61100
x1 = 0.7502	281.4
x1 = 0.851	55.46

CC(=O)Nc1ccc(O)cc1 + O
viscosity, [1], 101 kPa
Details	x1 = 0.00011	x1 = 0.000241	x1 = 0.000483	x1 = 0.000727	x1 = 0.000975	x1 = 0.00122
298.15 K	0.8928 mPa·s and 0.8928 mPa·s	0.8964 mPa·s and 0.8964 mPa·s	0.9001 mPa·s and 0.9001 mPa·s	0.9061 mPa·s and 0.9061 mPa·s	0.9121 mPa·s and 0.9121 mPa·s	0.9178 mPa·s and 0.9178 mPa·s
308.15 K	0.7208 mPa·s and 0.7208 mPa·s	0.7243 mPa·s and 0.7243 mPa·s	0.7281 mPa·s and 0.7279 mPa·s	0.7329 mPa·s and 0.7329 mPa·s	0.7378 mPa·s and 0.7378 mPa·s	0.7424 mPa·s and 0.7424 mPa·s
318.15 K	0.598 mPa·s and 0.598 mPa·s	0.6004 mPa·s and 0.6004 mPa·s	0.6053 mPa·s and 0.6053 mPa·s	0.6102 mPa·s and 0.6102 mPa·s	0.6151 mPa·s and 0.6151 mPa·s	0.6197 mPa·s and 0.6197 mPa·s

CC(C)[C@H](NC(=O)[C@H](C)N)C(=O)O + O
viscosity [mPa·s], [1], 101 kPa
Details	x1 = 3.62e-05	x1 = 7.46e-05	x1 = 0.000109	x1 = 0.000142	x1 = 0.0001835	x1 = 0.0002124	x1 = 0.0002514	x1 = 0.0002793	x1 = 0.0003251	x1 = 0.0003549
305.15 K	0.7756	0.7779	0.7783	0.7805	0.7822	0.7866	0.7955	0.8038	0.8095	0.8143
310.15 K	0.7078	0.7083	0.7121	0.7125	0.7162	0.7192	0.7239	0.7284	0.7327	0.7351
315.15 K	0.647	0.6501	0.6523	0.6554	0.6591	0.6601	0.6623	0.6675	0.6689	0.6701

CC(O)CN(CC(C)O)CC(C)O (stereo unspecified) + O
viscosity [mPa·s], [1], 101 kPa
Details	303.15 K	313.15 K	318.15 K
x1 = 0.005	–	–	0.7315
x1 = 0.03	2.395	1.775	–

CN1CCNCC1 + O
Details	viscosity [mPa·s]
[1], 298.15 K, 101 kPa, x1 = 0.1039	10.75
